{"source": "paper PMC6120666", "about": "(The EMBO Journal, 2018)", "experiment_in_all_cases": "Drug affinity chromatography with c-ponatinib and LC-MS/MS (ponatinib interactome)", "format_in_all_cases": "binding", "key": {"[1]": {"molecular_target": "T1, proteins of U2OS cell lysate (Homo sapiens, UniProt O94906)", "T1 construct": "Proteins enriched by c-ponatinib from U2OS cell lysate; endogenous in cells; host or cells: U2OS cell lysate", "details": "PRPF6, Pre-mRNA-processing factor 6", "in_short": "(§1)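 Proteins were identified by nano-UPLC–MS/MS after elution with formic acid and trypsin digestion. They were captured from U2OS lysate (2 mg protein per pulldown, NP-40 buffer) on amine-coupled NHS beads during a 2 h incubation at 4 °C.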"}, "[2]": {"molecular_target": "T2, proteins of U2OS cell lysate (Homo sapiens, UniProt P07947)", "T2 construct": "Proteins enriched by c-ponatinib from U2OS cell lysate; endogenous in cells; host or cells: U2OS cell lysate", "T2 sequence (P07947 whole entry)": "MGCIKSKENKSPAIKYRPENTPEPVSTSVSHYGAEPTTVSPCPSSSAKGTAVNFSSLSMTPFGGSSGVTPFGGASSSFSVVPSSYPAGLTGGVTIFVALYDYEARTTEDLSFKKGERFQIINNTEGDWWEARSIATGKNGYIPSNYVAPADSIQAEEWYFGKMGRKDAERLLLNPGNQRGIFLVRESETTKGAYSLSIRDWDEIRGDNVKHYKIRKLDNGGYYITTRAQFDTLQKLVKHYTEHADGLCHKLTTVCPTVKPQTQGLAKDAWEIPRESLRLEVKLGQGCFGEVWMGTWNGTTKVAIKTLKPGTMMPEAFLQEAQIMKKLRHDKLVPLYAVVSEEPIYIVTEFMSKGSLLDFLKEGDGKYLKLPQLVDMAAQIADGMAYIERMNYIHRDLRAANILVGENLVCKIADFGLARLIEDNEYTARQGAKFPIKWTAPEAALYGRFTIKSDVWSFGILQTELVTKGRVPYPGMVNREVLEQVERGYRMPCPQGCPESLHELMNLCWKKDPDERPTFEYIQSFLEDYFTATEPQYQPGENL", "details": "YES1, Tyrosine-protein kinase Yes", "in_short": "as §1"}, "[3]": {"molecular_target": "T3, proteins of U2OS cell lysate (Homo sapiens, UniProt P23246)", "T3 construct": "Proteins enriched by c-ponatinib from U2OS cell lysate; endogenous in cells; host or cells: U2OS cell lysate", "details": "SFPQ, Splicing factor, proline- and glutamine-rich", "in_short": "as §1"}, "[4]": {"molecular_target": "T4, proteins of U2OS cell lysate (Homo sapiens, UniProt P23528)", "T4 construct": "Proteins enriched by c-ponatinib from U2OS cell lysate; endogenous in cells; host or cells: U2OS cell lysate", "T4 sequence (P23528 whole entry)": "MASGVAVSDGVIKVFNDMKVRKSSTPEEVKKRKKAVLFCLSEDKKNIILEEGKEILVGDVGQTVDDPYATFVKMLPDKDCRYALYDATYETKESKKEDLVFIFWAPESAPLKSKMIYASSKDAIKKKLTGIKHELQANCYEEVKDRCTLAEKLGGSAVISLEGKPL", "details": "CFL1, Cofilin-1", "in_short": "as §1"}, "[5]": {"molecular_target": "T5, proteins of U2OS cell lysate (Homo sapiens, UniProt P31947)", "T5 construct": "Proteins enriched by c-ponatinib from U2OS cell lysate; endogenous in cells; host or cells: U2OS cell lysate", "details": "SFN, 14-3-3 protein sigma", "in_short": "as §1"}, "[6]": {"molecular_target": "T6, proteins of U2OS cell lysate (Homo sapiens, UniProt P33991)", "T6 construct": "Proteins enriched by c-ponatinib from U2OS cell lysate; endogenous in cells; host or cells: U2OS cell lysate", "details": "MCM4, DNA replication licensing factor MCM4", "in_short": "as §1"}, "[7]": {"molecular_target": "T7, proteins of U2OS cell lysate (Homo sapiens, UniProt P34932)", "T7 construct": "Proteins enriched by c-ponatinib from U2OS cell lysate; endogenous in cells; host or cells: U2OS cell lysate", "T7 sequence (P34932 whole entry)": "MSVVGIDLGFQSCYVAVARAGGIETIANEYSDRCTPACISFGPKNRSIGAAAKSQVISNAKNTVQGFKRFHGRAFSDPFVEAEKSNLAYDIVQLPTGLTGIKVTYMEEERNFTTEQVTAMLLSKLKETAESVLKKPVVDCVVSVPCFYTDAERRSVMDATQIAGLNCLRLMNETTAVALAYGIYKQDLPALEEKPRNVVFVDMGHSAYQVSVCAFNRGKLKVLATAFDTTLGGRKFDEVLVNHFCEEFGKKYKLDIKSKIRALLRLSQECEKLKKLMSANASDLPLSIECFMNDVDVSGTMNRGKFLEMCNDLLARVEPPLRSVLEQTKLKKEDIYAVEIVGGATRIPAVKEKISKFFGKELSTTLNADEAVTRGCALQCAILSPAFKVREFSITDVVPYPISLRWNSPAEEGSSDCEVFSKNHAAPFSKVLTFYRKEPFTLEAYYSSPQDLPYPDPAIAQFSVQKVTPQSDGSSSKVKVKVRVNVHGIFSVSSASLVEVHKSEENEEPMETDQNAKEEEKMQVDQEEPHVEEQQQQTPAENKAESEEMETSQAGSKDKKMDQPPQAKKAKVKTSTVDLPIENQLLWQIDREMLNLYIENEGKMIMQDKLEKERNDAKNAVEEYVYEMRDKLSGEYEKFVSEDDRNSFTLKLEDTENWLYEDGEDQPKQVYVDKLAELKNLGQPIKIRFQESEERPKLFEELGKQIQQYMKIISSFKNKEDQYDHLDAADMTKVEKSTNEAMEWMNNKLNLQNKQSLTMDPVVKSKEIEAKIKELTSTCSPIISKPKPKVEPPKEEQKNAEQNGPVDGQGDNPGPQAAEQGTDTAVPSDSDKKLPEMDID", "details": "HSPA4, Heat shock 70 kDa protein 4", "in_short": "as §1"}, "[8]": {"molecular_target": "T8, proteins of U2OS cell lysate (Homo sapiens, UniProt P46060)", "T8 construct": "Proteins enriched by c-ponatinib from U2OS cell lysate; endogenous in cells; host or cells: U2OS cell lysate", "T8 sequence (P46060 whole entry)": "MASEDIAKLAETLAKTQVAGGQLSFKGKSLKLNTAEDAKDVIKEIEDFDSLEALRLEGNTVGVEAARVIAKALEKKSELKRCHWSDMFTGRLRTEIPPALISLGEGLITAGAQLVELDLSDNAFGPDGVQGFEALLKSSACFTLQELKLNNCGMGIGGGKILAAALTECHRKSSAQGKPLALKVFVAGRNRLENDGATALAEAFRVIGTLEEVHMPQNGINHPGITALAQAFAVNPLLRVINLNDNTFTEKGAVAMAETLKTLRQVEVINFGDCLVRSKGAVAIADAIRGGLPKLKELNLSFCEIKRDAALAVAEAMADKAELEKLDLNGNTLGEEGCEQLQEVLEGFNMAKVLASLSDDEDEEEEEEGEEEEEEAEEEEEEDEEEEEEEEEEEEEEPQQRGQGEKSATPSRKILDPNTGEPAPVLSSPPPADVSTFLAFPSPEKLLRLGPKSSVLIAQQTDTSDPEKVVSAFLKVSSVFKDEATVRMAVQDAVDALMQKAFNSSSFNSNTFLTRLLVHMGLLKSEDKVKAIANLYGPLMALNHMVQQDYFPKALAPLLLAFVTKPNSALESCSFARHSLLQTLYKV", "details": "RANGAP1, Ran GTPase-activating protein 1", "in_short": "as §1"}, "[9]": {"molecular_target": "T9, proteins of U2OS cell lysate (Homo sapiens, UniProt P47914)", "T9 construct": "Proteins enriched by c-ponatinib from U2OS cell lysate; endogenous in cells; host or cells: U2OS cell lysate", "details": "RPL29, 60S ribosomal protein L29", "in_short": "as §1"}, "[10]": {"molecular_target": "T10, proteins of U2OS cell lysate (Homo sapiens, UniProt P49759)", "T10 construct": "Proteins enriched by c-ponatinib from U2OS cell lysate; endogenous in cells; host or cells: U2OS cell lysate", "T10 sequence (P49759 whole entry)": "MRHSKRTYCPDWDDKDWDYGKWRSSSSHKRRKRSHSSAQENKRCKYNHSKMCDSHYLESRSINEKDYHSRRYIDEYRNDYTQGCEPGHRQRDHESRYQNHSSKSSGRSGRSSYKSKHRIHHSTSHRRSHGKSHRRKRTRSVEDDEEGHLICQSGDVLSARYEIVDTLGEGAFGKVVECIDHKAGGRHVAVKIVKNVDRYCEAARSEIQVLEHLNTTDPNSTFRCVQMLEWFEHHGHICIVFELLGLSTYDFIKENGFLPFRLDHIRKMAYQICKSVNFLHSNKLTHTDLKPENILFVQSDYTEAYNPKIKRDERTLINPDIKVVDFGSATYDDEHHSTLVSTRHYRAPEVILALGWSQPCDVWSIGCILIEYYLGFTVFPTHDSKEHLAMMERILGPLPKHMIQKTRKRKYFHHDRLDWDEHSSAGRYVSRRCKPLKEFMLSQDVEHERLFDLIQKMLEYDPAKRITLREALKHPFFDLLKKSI", "details": "CLK1, Dual specificity protein kinase CLK1", "in_short": "as §1"}, "[11]": {"molecular_target": "T11, proteins of U2OS cell lysate (Homo sapiens, UniProt P60660)", "T11 construct": "Proteins enriched by c-ponatinib from U2OS cell lysate; endogenous in cells; host or cells: U2OS cell lysate", "T11 sequence (P60660 whole entry)": "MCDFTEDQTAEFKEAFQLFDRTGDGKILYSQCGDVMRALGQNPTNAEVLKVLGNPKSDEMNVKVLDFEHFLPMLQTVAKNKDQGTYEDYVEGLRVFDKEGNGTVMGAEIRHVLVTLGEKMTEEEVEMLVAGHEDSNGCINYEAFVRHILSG", "details": "MYL6, Myosin light polypeptide 6", "in_short": "as §1"}, "[12]": {"molecular_target": "T12, proteins of U2OS cell lysate (Homo sapiens, UniProt P62081)", "T12 construct": "Proteins enriched by c-ponatinib from U2OS cell lysate; endogenous in cells; host or cells: U2OS cell lysate", "details": "RPS7, 40S ribosomal protein S7", "in_short": "as §1"}, "[13]": {"molecular_target": "T13, proteins of U2OS cell lysate (Homo sapiens, UniProt Q00610)", "T13 construct": "Proteins enriched by c-ponatinib from U2OS cell lysate; endogenous in cells; host or cells: U2OS cell lysate", "details": "CLTC, Clathrin heavy chain 1", "in_short": "as §1"}, "[14]": {"molecular_target": "T14, proteins of U2OS cell lysate (Homo sapiens, UniProt Q12851)", "T14 construct": "Proteins enriched by c-ponatinib from U2OS cell lysate; endogenous in cells; host or cells: U2OS cell lysate", "details": "MAP4K2, Mitogen-activated protein kinase kinase kinase kinase 2", "in_short": "as §1"}, "[15]": {"molecular_target": "T15, proteins of U2OS cell lysate (Homo sapiens, UniProt Q14152)", "T15 construct": "Proteins enriched by c-ponatinib from U2OS cell lysate; endogenous in cells; host or cells: U2OS cell lysate", "details": "EIF3A, Eukaryotic translation initiation factor 3 subunit A", "in_short": "as §1"}, "[16]": {"molecular_target": "T16, proteins of U2OS cell lysate (Homo sapiens, UniProt Q16531)", "T16 construct": "Proteins enriched by c-ponatinib from U2OS cell lysate; endogenous in cells; host or cells: U2OS cell lysate", "T16 sequence (Q16531 whole entry)": "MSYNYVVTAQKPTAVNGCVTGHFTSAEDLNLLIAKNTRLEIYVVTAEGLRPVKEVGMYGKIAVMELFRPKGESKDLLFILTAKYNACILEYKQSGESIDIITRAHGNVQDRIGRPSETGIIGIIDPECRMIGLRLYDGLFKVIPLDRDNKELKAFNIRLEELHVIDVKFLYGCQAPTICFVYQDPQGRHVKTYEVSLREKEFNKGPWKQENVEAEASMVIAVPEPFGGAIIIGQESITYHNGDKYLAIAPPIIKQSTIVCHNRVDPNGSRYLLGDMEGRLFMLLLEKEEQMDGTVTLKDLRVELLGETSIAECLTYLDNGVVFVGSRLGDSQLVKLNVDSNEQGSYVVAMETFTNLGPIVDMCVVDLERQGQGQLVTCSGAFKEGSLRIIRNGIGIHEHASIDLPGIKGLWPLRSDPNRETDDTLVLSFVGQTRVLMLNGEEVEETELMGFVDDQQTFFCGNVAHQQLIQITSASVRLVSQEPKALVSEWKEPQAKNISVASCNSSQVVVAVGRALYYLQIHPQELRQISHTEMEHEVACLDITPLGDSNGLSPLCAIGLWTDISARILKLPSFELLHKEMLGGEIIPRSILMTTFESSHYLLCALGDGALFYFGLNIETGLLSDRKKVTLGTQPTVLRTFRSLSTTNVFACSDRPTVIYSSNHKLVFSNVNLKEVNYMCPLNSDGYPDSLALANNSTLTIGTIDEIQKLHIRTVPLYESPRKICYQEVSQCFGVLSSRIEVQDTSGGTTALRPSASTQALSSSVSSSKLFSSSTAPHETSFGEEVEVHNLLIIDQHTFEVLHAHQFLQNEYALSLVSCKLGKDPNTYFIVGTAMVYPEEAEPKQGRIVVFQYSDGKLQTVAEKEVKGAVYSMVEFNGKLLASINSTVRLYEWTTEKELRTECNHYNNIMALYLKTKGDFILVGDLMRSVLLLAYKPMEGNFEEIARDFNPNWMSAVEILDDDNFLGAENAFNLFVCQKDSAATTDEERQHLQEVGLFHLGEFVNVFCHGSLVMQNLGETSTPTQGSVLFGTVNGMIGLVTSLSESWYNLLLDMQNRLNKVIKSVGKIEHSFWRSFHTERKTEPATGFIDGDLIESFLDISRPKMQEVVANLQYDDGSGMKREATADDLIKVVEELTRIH", "details": "DDB1, DNA damage-binding protein 1", "in_short": "as §1"}, "[17]": {"molecular_target": "T17, proteins of U2OS cell lysate (Homo sapiens, UniProt Q86UP2)", "T17 construct": "Proteins enriched by c-ponatinib from U2OS cell lysate; endogenous in cells; host or cells: U2OS cell lysate", "details": "KTN1, Kinectin", "in_short": "as §1"}, "[18]": {"molecular_target": "T18, proteins of U2OS cell lysate (Homo sapiens, UniProt Q9P0K7)", "T18 construct": "Proteins enriched by c-ponatinib from U2OS cell lysate; endogenous in cells; host or cells: U2OS cell lysate", "T18 sequence (Q9P0K7 whole entry)": "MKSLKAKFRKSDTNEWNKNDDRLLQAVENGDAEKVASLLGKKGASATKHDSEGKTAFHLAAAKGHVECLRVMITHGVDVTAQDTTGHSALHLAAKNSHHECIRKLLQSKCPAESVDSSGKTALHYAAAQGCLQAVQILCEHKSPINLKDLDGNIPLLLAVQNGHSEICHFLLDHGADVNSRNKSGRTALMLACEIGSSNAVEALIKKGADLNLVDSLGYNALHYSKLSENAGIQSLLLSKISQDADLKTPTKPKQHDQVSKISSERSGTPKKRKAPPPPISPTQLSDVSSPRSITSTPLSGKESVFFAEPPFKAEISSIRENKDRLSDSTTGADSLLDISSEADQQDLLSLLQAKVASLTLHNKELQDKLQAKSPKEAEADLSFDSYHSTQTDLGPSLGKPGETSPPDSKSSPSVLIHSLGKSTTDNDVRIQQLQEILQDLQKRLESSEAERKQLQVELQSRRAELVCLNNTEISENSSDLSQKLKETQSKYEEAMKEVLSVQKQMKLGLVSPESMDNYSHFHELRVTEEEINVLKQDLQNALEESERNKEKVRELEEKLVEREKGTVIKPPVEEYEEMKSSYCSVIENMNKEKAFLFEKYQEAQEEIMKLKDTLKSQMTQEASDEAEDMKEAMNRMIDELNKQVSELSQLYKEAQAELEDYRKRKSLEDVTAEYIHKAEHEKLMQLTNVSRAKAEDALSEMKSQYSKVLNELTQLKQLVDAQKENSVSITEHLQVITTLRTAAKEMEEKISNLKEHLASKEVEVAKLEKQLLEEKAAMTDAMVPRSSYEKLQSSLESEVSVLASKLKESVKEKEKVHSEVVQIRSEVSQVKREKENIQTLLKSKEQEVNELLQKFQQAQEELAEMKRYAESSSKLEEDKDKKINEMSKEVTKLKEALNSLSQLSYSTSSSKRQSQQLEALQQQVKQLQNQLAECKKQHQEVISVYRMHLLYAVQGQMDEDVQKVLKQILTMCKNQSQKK", "details": "RAI14, Ankycorbin", "in_short": "as §1"}, "[19]": {"molecular_target": "T19, proteins of U2OS cell lysate (Homo sapiens, UniProt Q00839)", "T19 construct": "Proteins enriched by c-ponatinib from U2OS cell lysate; endogenous in cells; host or cells: U2OS cell lysate", "details": "captured protein HNRNPU, Rank 192", "in_short": "as §1"}}}
{"smiles": "Cc1ccc(C(=O)Nc2ccc(CN3CCN(C)CC3)c(C(F)(F)F)c2)cc1C#Cc1cnc2cccnn12", "note": "[PON]", "values": [{"measurement": "Average LFQ PON_WT", "setting": "[1]", "value": 19.4979}, {"measurement": "Average LFQ PON_WT", "setting": "[2]", "value": 25.9404}, {"measurement": "Average LFQ PON_WT", "setting": "[3]", "value": 20.8702}, {"measurement": "Average LFQ PON_WT", "setting": "[4]", "value": 19.4794}, {"measurement": "Average LFQ PON_WT", "setting": "[5]", "value": 23.8618}, {"measurement": "Average LFQ PON_WT", "setting": "[6]", "value": 19.8468}, {"measurement": "Average LFQ PON_WT", "setting": "[7]", "value": 24.3032}, {"measurement": "Average LFQ PON_WT", "setting": "[8]", "value": 21.315}, {"measurement": "Average LFQ PON_WT", "setting": "[9]", "value": 19.934}, {"measurement": "Average LFQ PON_WT", "setting": "[10]", "value": 19.0546}, {"measurement": "Average LFQ PON_WT", "setting": "[11]", "value": 23.7934}, {"measurement": "Average LFQ PON_WT", "setting": "[12]", "value": 20.8944}, {"measurement": "Average LFQ PON_WT", "setting": "[13]", "value": 26.5716}, {"measurement": "Average LFQ PON_WT", "setting": "[14]", "value": 27.1188}, {"measurement": "Average LFQ PON_WT", "setting": "[15]", "value": 21.466}, {"measurement": "Average LFQ PON_WT", "setting": "[16]", "value": 20.7257}, {"measurement": "Average LFQ PON_WT", "setting": "[17]", "value": 24.25}, {"measurement": "Average LFQ PON_WT", "setting": "[18]", "value": 19.7116}]}
{"smiles": "Cc1ccc(C(=O)Nc2ccc(CN3CCN(CCCN)CC3)c(C(F)(F)F)c2)cc1C#Cc1cnc2cccnn12", "note": "[c-ponatinib, reference compound]", "values": [{"measurement": "Average LFQ intensity", "setting": "[19]", "value": 21.9786}]}
